The source of these data is patent publication US6313174A, “Aminobenzophenones as inhibitors of interleukin and TNF” (Leo Pharmaceutical Products Ltd.A/S/ (L.o slashed.vens …, priority 1997, dated 2001).

One series deals with IL-1β. Kind of series: Inhibition of IL-1β secretion from LPS stimulated peripheral blood mononuclear cells (ELISA). Type of series: cell-based. The settings on record: LPS (1 μg/ml) stimulated human PBMC, 18 hours; read-out: The median inhibition concentration (IC50, nM) of IL-1β. On the procedure: (§1) To study the effect of the compound of the present invention, in vitro, the inhibition of the IL-1β and TNF-α secretion was measured using the following procedure:
(§2) Cytokine production was measured in the media from lipopolysaccharide (LPS) stimulated peripheral blood mononuclear cells. The mononuclear cells were isolated from human peripheral blood by Lymphoprep® (Nycomed, Norway) fractionation and suspended in RPMI 1640 (growth medium) with foetal calv serum (FCS, 2%), at a concentration of 5×10^5 cells/ml. The cells were incubated in 24-well tissue culture plates in 1 ml aliquots. Test compounds were dissolved in dimethylsulfoxide (DMSO, 10 mM) and were diluted with the medium. Compounds were added to the cells for 30 minutes, then LPS (1 μg/ml final concentration) was added. The plates were incubated for 18 hours, and the concentration of IL-1β and TNF-α in the medium was determined by enzyme-linked immunosorbent assays. The median inhibitory concentrations (IC50) of the compounds were calculated.
(In an ELISA, binding on a coated surface is turned into a signal by an enzyme label.)

For a further series, the system named is PMN-superoxide. Briefly: Inhibition of PMN (polymorphonuclear) superoxide secretion. Format: cell-based. Particulars: human PMN granulocytes, TNF-α primed, fMLP 10^-7 M; read-out: The median inhibition concentration (IC50, nM) of PMN-superoxide. The procedure: The compounds of the present invention also show similar activities in the ability to inhibit PMN (polymorphonuclear) superoxide secretion which is also indicative of potentially useful anti-inflammatory drugs. The compounds were tested using the following procedure:
Human polymorphonuclear (PMN) granulocytes were isolated from human blood by dextran sedimentation, Lymphoprep® fractionation and hypotonic lysis of contaminating erythrocytes.
Superoxide anion generation was measured as the superoxide dismutase inhibitable reduction of ferricytochrome C (Madhu, S. B. et al, Inflammation, 16, 241, (1992)).
The cells were suspended in Hanks' balanced salt solution, and incubated for 10 minutes at 37° C. with test compounds. The cells were primed by the addition of TNF-α (3 ng/ml final concentration) for 10 minutes, and then ferricytochrome C, (final concentration 750 μg/ml), bovine serum albumin (BSA, final concentration 1 mg/ml) and formyl-methionyl-leucyl-phenylalanine (fMLP, final concentration 10^-7 M) were added for 3 minutes.
The cells were chilled on ice, and were spun down. The optical densities in the cell-free supernatant was measured in a spectrophotometer.
The median inhibitory concentration (IC50) of the compounds was calculated.

A further series has as its system TNF-α. Briefly: Inhibition of TNF-α secretion from LPS stimulated peripheral blood mononuclear cells (ELISA). Format: cell-based. The settings on record: LPS (1 μg/ml) stimulated human PBMC, 18 hours; read-out: The median inhibition concentration (IC50, nM) of TNF-α. The procedure: as §1, §2
In series [1] the test system is TPA induced murine skin inflammation. Briefly: TPA induced murine chronic skin inflammation model, ear thickness (ET). Format: in vivo, mice. Particulars: topical, twice daily on day 8, 9 and 10 and once on day 11. The procedure: (§3) To study the compounds of the present invention in vivo the 12--O--tetradecanoylphorbol-13-acetate (TPA) induced murine chronic skin inflammation model were used (De Young, L. M. et al, Agents Actions, 26, 335-341 (1989); Carlson, R. P. et al, Agents Actions, 17, 197-204 (1985); Alford, J. G. et al, Agents Action, 37, (1992); Stanley, P. L. et al, Skin Pharmacol, 4, 262-271 (1991)). The compounds were tested using the following procedure:
(§4) In groups of 6 female mice weighing 18-25 grams, ear skin inflammation was induced by multiple topical applications of TPA on alternate days during a 10 day period. The resulting inflammation was treated topically with compounds in acetone (20 μl/ear) twice daily on day 8, 9 and 10 and once on day 11. The increased ear thickness (ET, right ear thickness minus left ear thickness) was determined approximately 6 hours after the treatment, the mice were sacrificed and the myeloperoxidase (MPO)-activitywas determined in ear biopsies.

Another series has as its system myeloperoxidase (MPO). Kind of series: TPA induced murine chronic skin inflammation model, myeloperoxidase (MPO) activity in ear biopsies. Type of series: in vivo, mice. The settings on record: topical, twice daily on day 8, 9 and 10 and once on day 11. The procedure: as §3, §4
Series [2] is described as follows: Spleen and thymus weight in the TPA induced murine skin inflammation model. Type of series: in vivo, mice. Particulars: 0.1 mg/ear, topical. On the procedure: as §3, §4

As to `Cc1ccccc1C(=O)c1ccc(Nc2ccccc2N)cc1Cl` [Example 56, 4-(2-Aminophenylamino)-2-chloro-2'-methylbenzophenone], the IC50 was determined as 13 nM with IL-1β, 5 nM in the series with PMN-superoxide and 7.1 nM in the series with TNF-α.

As to `Cc1ccc(S(=O)(=O)Nc2ccccc2Nc2ccc(C(=O)c3ccccc3)cc2)cc1` [Example 27, N-(2-(4-Benzoylphenylamino)phenyl)-4-toluenesulfonamide], the “% inhibition of ET” value in series [1] (0.1 mg/ear) turned out to be 44%. For the same molecule, the “% inhibition of MPO” value with myeloperoxidase (MPO) (0.1 mg/ear) came out at 48%.

As to `CCOC(=O)Nc1ccccc1Nc1ccc(C(=O)c2ccccc2C)c(Cl)c1` [Example 73, Ethyl N-(2-(4-(2-methylbenzoyl)-3-chlorophenylamino)phenyl)carbamate], the results for the IC50 in the series with IL-1β, in the series on PMN-superoxide and in the series on TNF-α were 32 nM, 5 nM and 5 nM, respectively.

With `CCOC(=O)Nc1ccccc1Nc1ccc(C(=O)c2ccccc2)cc1` [Example 32, Ethyl N-(2-(4-benzoylphenylamino)phenyl)carbamate], the IC50 with IL-1β is 100 nM; in the series with PMN-superoxide it was over 10000 nM; with TNF-α, 130 nM.

Take `C[C@]12CCC(=O)C=C1CC[C@@H]1[C@@H]2[C@@H](O)C[C@@]2(C)[C@H]1CC[C@]2(O)C(=O)CO` [Hydrocortisone, reference compound]: the “% inhibition of ET” value in series [1] (0.03 mg/ear) is 36%; in series [1] (0.1 mg/ear) it was 58%. For the same molecule, the “% inhibition of MPO” value in the series with myeloperoxidase (MPO) (0.03 mg/ear) turned out to be 51%; with myeloperoxidase (MPO) (0.1 mg/ear), 69%. In series [2], the “Reduction of spleen and thymus weight” value was “Reduction of spleen and thymus weight”.

Take `Nc1ccccc1Nc1ccc(C(=O)c2ccccc2Cl)cc1` [Example 13, 4-(2-Aminophenylamino)-2'-chlorobenzophenone]: the results for the IC50 with IL-1β, with PMN-superoxide and in the series on TNF-α were 160 nM, 40 nM and 200 nM, respectively.

As to `Nc1ccc(Nc2ccc(C(=O)c3ccccc3)cc2)cc1` [Example 2, 4-(4-Aminophenylamino)benzophenone], the “% inhibition of ET” value in series [1] (0.1 mg/ear) was found to be 40%. Further, the “% inhibition of MPO” value with myeloperoxidase (MPO) (0.1 mg/ear) came to 76%.

As to `Nc1ccccc1Nc1ccc(C(=O)c2ccccc2)cc1` [Example 1, 4-(2-Aminophenylamino)benzophenone], the IC50 came out at 250 nM in the series with IL-1β, 160 nM in the series with PMN-superoxide and 790 nM with TNF-α. Also, the “% inhibition of ET” value in series [1] (0.1 mg/ear) turned out to be 50%. In addition, the “% inhibition of MPO” value in the series with myeloperoxidase (MPO) (0.1 mg/ear) is 65%.
